Data as given in patent publication US20030181527A1, “Novel formulations of alpha-2,4-disulfophenyl-n-tert-butylnitrone” (priority 2000, published 2003).
“Also recorded” adds a separate entry of the source.

Key:
[1] = Stability with air or nitrogen filled headspaces (Table 5); format: physicochemical; settings: 400 mg/ml
Procedure: A 400 mg/ml concentrate of α-(2,4-disulfophenyl)-N-tert-butylnitrone disodium salt was prepared by adding α-(2,4-disulfophenyl)-N-tert-butylnitrone disodium salt (1500 g) to water for injection (2200 ml) containing dissolved disodium hydrogen phosphate dihydrate (3.51 g). The solution was then adjusted to pH 8.5 by the addition of 2M sodium hydroxide solution and then water for injection was added to give a final volume of 3750 ml. After preparation, the solution was purged with nitrogen for 90 minutes and then placed in 10 ml glass vials with a fill volume of 7.7 ml. Before stoppering the vials, the headspace was purged with nitrogen. […] The vials were stored either at +5° C. at ambient humidity or at +25° C. and 60% relative humidity.
A second batch of 400 mg/ml concentrate of α-(2,4-disulfophenyl)-N-tert-butylnitrone disodium salt buffered with 50 mM phosphate buffer was treated identically except that the headspace was filled with air not nitrogen and the fill volume was 10.5 ml.

[2] = Effect of concentration on stability, phosphate-buffered solutions at +5° C.; format: physicochemical; settings: 50 mM phosphate buffer
Procedure: In a third study aqueous solutions of α-(2,4-disulfophenyl)-N-tert-butylnitrone disodium salt (concentration either 200 mg/ml or 400 mg/ml) buffered with phosphate buffer (50 mM) were dispensed into 10 ml glass vials and stored at +5° C.

[3] = Stability versus vial headspace volume (fill volume); format: physicochemical; settings: 400 mg/ml; for Final Amount of Aldehyde (II): pH 8.5, headspace not purged, 2 months +40° C./75% RH
Procedure: A concentrated aqueous solution of α-(2,4-disulfophenyl)-N-tert-butylnitrone disodium salt (400 mg/ml) and disodium hydrogen phosphate (10.5 mM) at pH 8.5 was purged with nitrogen for 30 minutes. Either 8 ml or 13 ml portions of this solution were then placed in standard 10 ml glass vials (the maximum possible fill volume of a standard 10 ml glass vial is 13 ml). The headspace was not purged with nitrogen. The vials were sealed and stored at +40° C. and 75% relative humidity for two months.

[4] = Photodegradation of aqueous solutions under indoor light; format: physicochemical; settings: 400 mg/ml aqueous concentrate, room temperature, 8 hours, disodium salt
A. niger = assay: Antimicrobial efficacy (European Pharmacopoeia 2000, Chapter 5.1.3); format: cell-based
Procedure: The antimicrobial efficacy was tested for three different solutions:
i) α-(2,4-disulfophenyl)-N-tert-butylnitrone disodium salt, 10 mg/ml;
ii) α-(2,4-disulfophenyl)-N-tert-butylnitrone disodium salt, 400 mg/ml; and
iii) a carbonate buffer control.
The tests were performed according to European Pharmacopoeia 2000, Chapter 5.1.3, pages 259 to 260. Seven 10 ml vials were inoculated, one per test organism. During the tests, the vials were stored at controlled room temperature and protected from light. At different time intervals, samples were withdrawn and after appropriate dilutions the numbers of viable microorganisms (colony forming units per ml, CFU/ml) were determined using standard plate count procedures.

## CC(C)(C)[N+]([O-])=Cc1ccc(S(=O)(=O)[O-])cc1S(=O)(=O)[O-].[Na+].[Na+] [α-(2,4-disulfophenyl)-N-tert-butylnitrone disodium salt]
[1]; 50 mM phosphate, air-filled headspace, fill 10.5 ml, +5° C., 0 months
  Amount of Aldehyde (II): 0.3 area %
[1]; 50 mM phosphate, air-filled headspace, fill 10.5 ml, +5° C., 3 months
  Amount of Aldehyde (II): 0.3 area %
[1]; 50 mM phosphate, air-filled headspace, fill 10.5 ml, +5° C., 6 months
  Amount of Aldehyde (II): 0.5 area %
[1]; 50 mM phosphate, air-filled headspace, fill 10.5 ml, +5° C., 12 months
  Amount of Aldehyde (II): 0.4 area %
[1]; 50 mM phosphate, air-filled headspace, fill 10.5 ml, +25° C./60% RH, 0 months
  Amount of Aldehyde (II): 0.3 area %
[1]; 50 mM phosphate, air-filled headspace, fill 10.5 ml, +25° C./60% RH, 3 months
  Amount of Aldehyde (II): 0.7 area %
[1]; 50 mM phosphate, air-filled headspace, fill 10.5 ml, +25° C./60% RH, 6 months
  Amount of Aldehyde (II): 1.0 area %
[1]; 50 mM phosphate, air-filled headspace, fill 10.5 ml, +25° C./60% RH, 12 months
  Amount of Aldehyde (II): 0.7 area %
[1]; pH 8.5, nitrogen-filled headspace, fill 7.7 ml, +5° C., 0 months
  Amount of Aldehyde (II): 0.2 area %
[1]; pH 8.5, nitrogen-filled headspace, fill 7.7 ml, +5° C., 3 months
  Amount of Aldehyde (II): 0.2 area %
[1]; pH 8.5, nitrogen-filled headspace, fill 7.7 ml, +5° C., 6 months
  Amount of Aldehyde (II): 0.2 area %
[1]; pH 8.5, nitrogen-filled headspace, fill 7.7 ml, +5° C., 12 months
  Amount of Aldehyde (II): 0.3 area %
[1]; pH 8.5, nitrogen-filled headspace, fill 7.7 ml, +25° C./60% RH, 0 months
  Amount of Aldehyde (II): 0.2 area %
[1]; pH 8.5, nitrogen-filled headspace, fill 7.7 ml, +25° C./60% RH, 3 months
  Amount of Aldehyde (II): 0.4 area %
[1]; pH 8.5, nitrogen-filled headspace, fill 7.7 ml, +25° C./60% RH, 6 months
  Amount of Aldehyde (II): 0.3 area %
[1]; pH 8.5, nitrogen-filled headspace, fill 7.7 ml, +25° C./60% RH, 12 months
  Amount of Aldehyde (II): 0.5 area %
[2]; 200 mg/ml, 0 months
  Amount of Aldehyde (II): 0.1 Area %
  pH: 8.0
[2]; 200 mg/ml, 6 months
  Amount of Aldehyde (II): 0.4 Area %
  pH: 7.9
[2]; 200 mg/ml, 12 months
  Amount of Aldehyde (II): 0.6 Area %
  pH: 7.9
[2]; 200 mg/ml, 18 months
  Amount of Aldehyde (II): 0.7 Area %
  pH: 8.0
[2]; 400 mg/ml, 0 months
  Amount of Aldehyde (II): 0.1 Area %
  pH: 8.0
[2]; 400 mg/ml, 6 months
  Amount of Aldehyde (II): 0.3 Area %
  pH: 7.8
[2]; 400 mg/ml, 12 months
  Amount of Aldehyde (II): 0.4 Area %
  pH: 7.8
[2]; 400 mg/ml, 18 months
  Amount of Aldehyde (II): 0.4 Area %
  pH: 7.9
[3]; 10.5 mM phosphate, pH 8.5, nitrogen purged, initial
  Initial aldehyde level: 0.1%
[3]; fill volume 8 ml in 10 ml vial
  Final Amount of Aldehyde (II): 1.1 area %
[3]; fill volume 13 ml in 10 ml vial
  Final Amount of Aldehyde (II): 0.6 area %
[4]
  Photodegradation: no photodegradation; also recorded: no degradation at all
A. niger; 10 mg/ml, 6 h
  Number of CFUs per ml - Time after Inoculation: 4.5 × 10^4 CFUs per ml
A. niger; 10 mg/ml, 24 h
  Number of CFUs per ml - Time after Inoculation: 5.0 × 10^4 CFUs per ml
A. niger; 10 mg/ml, 48 h
  Number of CFUs per ml - Time after Inoculation: 5.5 × 10^4 CFUs per ml
A. niger; 10 mg/ml, 7 days
  Number of CFUs per ml - Time after Inoculation: 3.0 × 10^4 CFUs per ml
A. niger; 10 mg/ml, 14 days
  Number of CFUs per ml - Time after Inoculation: 1.0 × 10^3 CFUs per ml
A. niger; 10 mg/ml, 21 days
  Number of CFUs per ml - Time after Inoculation: 1.0 × 10^2 CFUs per ml
A. niger; 10 mg/ml, 28 days
  Number of CFUs per ml - Time after Inoculation: ≦10 CFUs per ml
A. niger; 10 mg/ml, <1 min
  Number of CFUs per ml - Time after Inoculation: 5.0 × 10^4 CFUs per ml
A. niger; 400 mg/ml, 6 h
  Number of CFUs per ml - Time after Inoculation: 5.9 × 10^4 CFUs per ml
A. niger; 400 mg/ml, 24 h
  Number of CFUs per ml - Time after Inoculation: 3.4 × 10^4 CFUs per ml
A. niger; 400 mg/ml, 48 h
  Number of CFUs per ml - Time after Inoculation: 1.7 × 10^4 CFUs per ml
A. niger; 400 mg/ml, 7 days
  Number of CFUs per ml - Time after Inoculation: 1.9 × 10^2 CFUs per ml
A. niger; 400 mg/ml, 14 days
  Number of CFUs per ml - Time after Inoculation: <1 CFUs per ml
A. niger; 400 mg/ml, 21 days
  Number of CFUs per ml - Time after Inoculation: <1 CFUs per ml
A. niger; 400 mg/ml, 28 days
  Number of CFUs per ml - Time after Inoculation: <1 CFUs per ml
